Test results reported in ChEMBL document CHEMBL3751767, “Synthesis, in vitro and in vivo anticancer activities of novel 4-substituted 1,2-bis(4-chlorophenyl)-pyrazolidine-3,5-dione derivatives” (Medchemcomm, 2015).
Calls of active or inactive are those of the source. The calls are words filed in the database; no cut-off is given here.

Experiments:
MGC-803 [1] = assay: Induction of apoptosis in human MGC803 cells assessed as increase in expression of cleaved caspase-3 at 4 to 12 uM by Western blot analysis; assay type: functional, cell-based; details: TDE = time-dependent effect
[2] = Antitumor activity against human MGC803 cells xenografted in nude mouse assessed as reduction in tumor weight 7.5 to 30 mg/kg, po qd for 28 days relative to control; assay type: functional, MGC-803; set-up: scale not given: the % may be the effect or the level left
MGC-803 [3] = assay: Induction of apoptosis in human MGC803 cells assessed as decrease in expression of procaspase-9 at 4 to 12 uM after 24 hrs by Western blot analysis; assay type: functional, cell-based
MGC-803 [4] = assay: Induction of apoptosis in human MGC803 cells assessed as viable cells at 12 uM after 12 hrs by Annexin V-FITC/propidium iodide staining based flow cytometry (reference value: 83.4%); assay type: functional; details: MGC-803, 12 h, read-out: Activity
MGC-803 [5] = assay: Induction of apoptosis in human MGC803 cells assessed as viable cells at 4 uM after 24 hrs by Annexin V-FITC/propidium iodide staining based flow cytometry (reference value: 86.6%); assay type: functional; details: MGC-803, 24 h, read-out: Activity
MGC-803 [6] = assay: Induction of apoptosis in human MGC803 cells assessed as viable cells at 4 uM after 12 hrs by Annexin V-FITC/propidium iodide staining based flow cytometry (reference value: 83.4%); assay type: functional; details: MGC-803, 12 h, read-out: Activity
MGC-803 [7] = assay: Induction of apoptosis in human MGC803 cells assessed as increase in expression of cleaved caspase-9 at 4 to 12 uM by Western blot analysis; assay type: functional, cell-based; details: TDE = time-dependent effect
MGC-803 [8] = assay: Induction of apoptosis in human MGC803 cells assessed as increase in expression of cleaved caspase-3 at 4 to 12 uM after 24 hrs by Western blot analysis; assay type: functional, cell-based
[9] = Cytotoxicity against human GES-1 cells assessed as cell viability at 20 uM after 72 hrs by MTT assay relative to control; assay type: cell-based, GES1; details: read-out: Activity
MGC-803 [10] = assay: Induction of apoptosis in human MGC803 cells assessed as morphological changes at 4 to 12 uM after 12 hrs by inverted microscopy; assay type: functional, cell-based
MGC-803 [11] = assay: Induction of apoptosis in human MGC803 cells assessed as necrotic cells at 4 uM after 24 hrs by Annexin V-FITC/propidium iodide staining based flow cytometry (reference value: 6.1%); assay type: functional
MGC-803 [12] = assay: Induction of apoptosis in human MGC803 cells by Annexin V-FITC/propidium iodide staining based flow cytometry; assay type: functional, cell-based
MGC-803 [13] = assay: Induction of apoptosis in human MGC803 cells assessed as early apoptotic cells at 8 uM after 12 hrs by Annexin V-FITC/propidium iodide staining based flow cytometry (reference value: 6.3%); assay type: functional
MGC-803 [14] = assay: Induction of apoptosis in human MGC803 cells assessed as viable cells at 8 uM after 12 hrs by Annexin V-FITC/propidium iodide staining based flow cytometry (reference value: 83.4%); assay type: functional; details: MGC-803, 12 h, read-out: Activity
MGC-803 [15] = assay: Induction of apoptosis in human MGC803 cells assessed as viable cells at 8 uM after 24 hrs by Annexin V-FITC/propidium iodide staining based flow cytometry (reference value: 86.6%); assay type: functional; details: MGC-803, 24 h, read-out: Activity
MGC-803 [16] = assay: Induction of apoptosis in human MGC803 cells assessed as necrotic cells at 12 uM after 24 hrs by Annexin V-FITC/propidium iodide staining based flow cytometry (reference value: 6.1%); assay type: functional
[17] = Cytotoxicity against human SMMC7721 cells assessed as reduction in cell viability after 72 hrs by MTT assay; assay type: functional, cell-based; details: SMMC-7721, 72 h
MGC-803 [18] = assay: Induction of apoptosis in human MGC803 cells assessed as nuclear morphological changes at 4 to 12 uM after 12 hrs by Hoechst 33258 staining based fluorescence assay; assay type: functional, cell-based
Mus musculus = assay: Toxicity in nude mouse xenografted with human MGC803 cells assessed as body weight loss at 7.5 to 30 mg/kg, po qd for 28 days; assay type: organism-based, MGC-803; details: in vivo, 672 h
MGC-803 [19] = assay: Induction of apoptosis in human MGC803 cells assessed as increase in expression of cleaved caspase-9 at 4 to 12 uM after 24 hrs by Western blot analysis; assay type: functional, cell-based
MGC-803 [20] = assay: Induction of apoptosis in human MGC803 cells assessed as increase in expression of cleaved caspase-3 after 24 hrs by Western blot analysis; assay type: functional, cell-based
MGC-803 [21] = assay: Induction of apoptosis in human MGC803 cells assessed as early apoptotic cells at 8 uM after 24 hrs by Annexin V-FITC/propidium iodide staining based flow cytometry (reference value: 6%); assay type: functional
[22] = Cytotoxicity against human EC109 cells assessed as reduction in cell viability after 72 hrs by MTT assay; assay type: functional, cell-based; details: ECa-109, 72 h
MGC-803 [23] = assay: Induction of apoptosis in human MGC803 cells assessed as necrotic cells at 12 uM after 12 hrs by Annexin V-FITC/propidium iodide staining based flow cytometry (reference value: 9.2%); assay type: functional
MGC-803 [24] = assay: Induction of apoptosis in human MGC803 cells assessed as late apoptotic cells at 4 uM after 12 hrs by Annexin V-FITC/propidium iodide staining based flow cytometry (reference value: 1.2%); assay type: functional
MGC-803 [25] = assay: Induction of apoptosis in human MGC803 cells assessed as necrotic cells at 8 uM after 12 hrs by Annexin V-FITC/propidium iodide staining based flow cytometry (reference value: 9.2%); assay type: functional
MGC-803 [26] = assay: Induction of apoptosis in human MGC803 cells assessed as early apoptotic cells at 12 uM after 12 hrs by Annexin V-FITC/propidium iodide staining based flow cytometry (reference value: 6.3%); assay type: functional
MGC-803 [27] = assay: Induction of apoptosis in human MGC803 cells assessed as late apoptotic cells at 12 uM after 24 hrs by Annexin V-FITC/propidium iodide staining based flow cytometry (reference value: 1.2%); assay type: functional
MGC-803 [28] = assay: Induction of apoptosis in human MGC803 cells assessed as early apoptotic cells at 4 uM after 24 hrs by Annexin V-FITC/propidium iodide staining based flow cytometry (reference value: 6%); assay type: functional
MGC-803 [29] = assay: Induction of apoptosis in human MGC803 cells assessed as late apoptotic cells at 4 uM after 24 hrs by Annexin V-FITC/propidium iodide staining based flow cytometry (reference value: 1.2%); assay type: functional
MGC-803 [30] = assay: Induction of apoptosis in human MGC803 cells assessed as early apoptotic cells at 12 uM after 24 hrs by Annexin V-FITC/propidium iodide staining based flow cytometry (reference value: 6%); assay type: functional
MGC-803 [31] = assay: Induction of apoptosis in human MGC803 cells assessed as necrotic cells at 8 uM after 24 hrs by Annexin V-FITC/propidium iodide staining based flow cytometry (reference value: 6.1%); assay type: functional
MGC-803 [32] = assay: Induction of apoptosis in human MGC803 cells assessed as late apoptotic cells at 8 uM after 24 hrs by Annexin V-FITC/propidium iodide staining based flow cytometry (reference value: 1.2%); assay type: functional
MGC-803 [33] = assay: Induction of apoptosis in human MGC803 cells assessed as viable cells at 12 uM after 24 hrs by Annexin V-FITC/propidium iodide staining based flow cytometry (reference value: 86.6%); assay type: functional; details: MGC-803, 24 h, read-out: Activity
MGC-803 [34] = assay: Induction of apoptosis in human MGC803 cells assessed as late apoptotic cells at 12 uM after 12 hrs by Annexin V-FITC/propidium iodide staining based flow cytometry (reference value: 1.2%); assay type: functional
MGC-803 [35] = assay: Induction of apoptosis in human MGC803 cells assessed as late apoptotic cells at 8 uM after 12 hrs by Annexin V-FITC/propidium iodide staining based flow cytometry (reference value: 1.2%); assay type: functional
MGC-803 [36] = assay: Induction of apoptosis in human MGC803 cells assessed as increase in Bax protein expression after 24 hrs by Western blot analysis; assay type: functional, cell-based
MGC-803 [37] = assay: Induction of apoptosis in human MGC803 cells assessed as reduction in Bcl-2 protein expression after 24 hrs by Western blot analysis; assay type: functional, cell-based
MGC-803 [38] = assay: Induction of apoptosis in human MGC803 cells assessed as necrotic cells at 4 uM after 12 hrs by Annexin V-FITC/propidium iodide staining based flow cytometry (reference value: 9.2%); assay type: functional
MGC-803 [39] = assay: Induction of apoptosis in human MGC803 cells assessed as increase in expression of cleaved caspase-9 after 24 hrs by Western blot analysis; assay type: functional, cell-based
MGC-803 [40] = assay: Induction of apoptosis in human MGC803 cells assessed as decrease in expression of procaspase-3 at 4 to 12 uM after 24 hrs by Western blot analysis; assay type: functional, cell-based
MCF7 = assay: Cytotoxicity against human MCF7 cells assessed as reduction in cell viability after 72 hrs by MTT assay; assay type: functional, cell-based; details: MCF7, 72 h
[41] = Cytotoxicity against human MGC803 cells assessed as reduction in cell viability after 72 hrs by MTT assay; assay type: functional, cell-based; details: MGC-803, 72 h
MGC-803 [42] = assay: Induction of apoptosis in human MGC803 cells assessed as early apoptotic cells at 4 uM after 12 hrs by Annexin V-FITC/propidium iodide staining based flow cytometry (reference value: 6.3%); assay type: functional

SMILES: O=C1C(=C/C=C/c2ccccc2)C(=O)N(c2ccc(Cl)cc2)N1c1ccc(Cl)cc1
- Activity (MGC-803 [1]): tde
- Activity [2]: 60.4%
- Activity (MGC-803 [3]): Active
- viability at 12 µM (MGC-803 [4]): 64.1%
- viability at 4 µM (MGC-803 [5]): 72.1%
- viability at 4 µM (MGC-803 [6]): 77.7%
- Activity (MGC-803 [7]): tde
- Activity (MGC-803 [8]): Active
- viability at 72 h, 20 µM [9]: 75%
- Activity (MGC-803 [10]): Active
- Activity (MGC-803 [11]): 5.8%
- Activity (MGC-803 [12]): Dose-dependent effect
- Activity (MGC-803 [13]): 21.5%
- viability at 8 µM (MGC-803 [14]): 71.1%
- viability at 8 µM (MGC-803 [15]): 65%
- Activity (MGC-803 [16]): 4.4%
- IC50 [17]: 10.1 µM
- Activity (MGC-803 [18]): Active
- Activity (Mus musculus): Non-toxic
- Activity (MGC-803 [19]): Active
- Activity (MGC-803 [20]): Dose-dependent effect
- Activity (MGC-803 [21]): 28.8%
- IC50 [22]: 9.9 µM
- Activity (MGC-803 [23]): 3.9%
- Activity (MGC-803 [24]): 1.8%
- Activity (MGC-803 [25]): 5.7%
- Activity (MGC-803 [26]): 30.1%
- Activity (MGC-803 [27]): 3.7%
- Activity (MGC-803 [28]): 20.4%
- Activity (MGC-803 [29]): 1.8%
- Activity (MGC-803 [30]): 52.7%
- Activity (MGC-803 [31]): 4.2%
- Activity (MGC-803 [32]): 2%
- viability at 12 µM (MGC-803 [33]): 39.2%
- Activity (MGC-803 [34]): 1.9%
- Activity (MGC-803 [35]): 1.7%
- Activity (MGC-803 [36]): Dose-dependent effect
- Activity (MGC-803 [37]): Dose-dependent effect
- Activity (MGC-803 [38]): 7.8%
- Activity (MGC-803 [39]): Dose-dependent effect
- Activity (MGC-803 [40]): Active
- IC50 (MCF7): 9.4 µM
- IC50 [41]: 5.1 µM
- Activity (MGC-803 [42]): 12.8%
